# In US20060281791A1, “Methods of increasing proliferation of adult mammalian cardiomyocytes through p38 map kinase inhibition” (CHILDREN'S MEDICAL CENTER CORPORATION, priority 2005, published 2006):
# Key:
# [1] = test system: myocardial infarction in adult rats; experiment: Scar volume (trichrome stain) after myocardial infarction; type: in vivo, rat
# Method: To determine whether p38 inhibition/FGF1 stimulation can induce cardiomyocyte proliferation in vivo and whether it has a positive effect on cardiac function after cardiac injury we created myocardial infarctions (MI) in adult rats (250 g) by coronary artery ligation. The p38 inhibitor SB203580 HCl or its vehicle, saline, were injected intraperitoneal every three days for the first month of the study. FGF1 or its carrier BSA was injected mixed with self-assembling peptides once into the infarct border zone immediately after coronary artery ligation. We injecting a total of 80 μl of 400 ng/ml FGF1, given at 3 different injection sites, into 400 mg of infarcted myocardium estimated to deliver a FGF 1 concentration to the cardiomyocytes of approximately 50 to 100 ng/ml. Animals were analyzed 24 hours, 2 weeks, and 3 month after surgery. […]
# To determine if p38 inhibition and FGF1 stimulation have an effect on infarct size we determined scar volume using trichrome stain. […]
# Scar formation was determined as fibrotic area/(fibrotic+non-fibrotic area) based on all sections. The thinning index is a ratio of the amount of wall thinning in the infarct normalized to the thickness of the septum and is calculated by dividing the minimal infarct wall thickness with maximal septal wall thickness (2 weeks: section 1 to 4, 3 month: section 1 to 6 from base).
# [2] = test system: neonatal (P2) cardiomyocytes; experiment: Induction of DNA synthesis (BrdU incorporation) in neonatal cardiomyocytes; type: cell-based, rat; details: BrdU labeling period 24 to 72 hours; harvested after 72 hours; optimal concentration of stimulus
# Method: Animal experiments were performed in accordance with guidelines of Children's Hospital, Boston and UCLA. Ventricular cardiomyocytes from fetal (E19), 2-day-old (P2) and adult (250-350 g) Wistar rats (Charles River) were isolated as described with minor modifications (Engel et al. 1999; Engel et al. 2003). After digestion of fetal or neonatal hearts (0.14 mg/ml collagenase II (Invitrogen), 0.55 mg/ml pancreatin (Sigma)) cells were cultured in DMEM/F12 (GIBCO) containing 3 mM Na-pyruvate, 0.2% BSA, 0.1 mM ascorbic acid (Sigma), 0.5% Insulin-Transferrin-Selenium (100×), penicillin (100 U/ml), streptomycin (100 μg/ml), and 2 mM L-glutamine (GIBCO). Adult cardiomyocytes were cultured for 1 day in standard medium (DMEM, 25 mM Hepes, 5 mM taurine, 5 mM creatine, 2 mM L-carnitine (Sigma), 20 U/ml insulin (GIBCO), 0.2% BSA, penicillin (100 U/ml), and streptomycin (100 μg/ml)). Cells were stimulated in culture medium without BSA containing 2 mM L-glutamine. Neonatal and adult cardiomyocytes were initially cultured for 48 h in the presence of 20 μM cytosine β-D-arabinofuranoside (araC, Sigma) and 5% horse serum before stimulation to prevent proliferation of non-myocytes. Adult cardiomyocytes were incubated another 3 days with araC during stimulation. Neonatal cardiomyocytes were stimulated every day with growth factors for BrdU and H3P analyses (FGF1 and NRG-1-1β at 50 ng/ml, IL-1β at 100 ng/ml, R&D Systems, all diluted in 0.1% BSA/PBS). SB203580 and LY294002 (Calbiochem) was added every day. Adult cardiomyocytes were stimulated with fresh medium and SB203580 every 3 days.
# Staining was performed as described (Supplemental Table S3) (Engel et al. 1999; Engel et al. 2003). Immune complexes were detected with ALEXA 350, ALEXA 488 or ALEXA 594-conjugated secondary antibodies (1:200, Molecular Probes). DNA was visualised with DAPI (4′,6′-diamidino-2-phenylindole, 0.5 μg/ml, Sigma). For BrdU, cells were cultured in 30 μM BrdU, incubated after permeabilization for 90 min in 2N HCl/1% triton X-100 and washed 3 times in PBS.
# Eighteen to 40 hearts of 3 different litters were used for quantitative analyses of maximal areas. For immunofluorescence analyses 1,500 fetal or neonatal cardiomyocytes were counted. For adult cardiomyocyte analyses in vitro the following number of cells were counted: 500-2,000 for BrdU or Ki67, 9,000-25,000 for H3P, and 12,000-45,000 for aurora B. For in vivo MKK3bE and p38α knockout experiments 2 different litters were used. We counted 1,500-2,000 cells in each apex, left and right ventricle per heart. For adult experiments we analyzed 2 p38α^Δ/Δ and 2 p38^lox/lox hearts (24 sections each). Statistical significance was determined using Student's t test.
# Several growth factors have a limited capacity to induce DNA synthesis in neonatal cardiomyocytes, including FGF1 (Pasumarthi and Field 2002). We screened 45 extracellular factors at two different concentrations for their ability to induce BrdU incorporation in neonatal (P2) cardiomyocytes. […] We confirmed previous studies showing that FGF1, IL-1β, and NRG-1-β1 are potent growth factors for neonatal cardiomyocytes (Supplemental Table S2) (Pasumarthi and Field 2002 Circ Res 90: 1044-54).
# Inhibition of p38 activity by SB203580 increased BrdU incorporation 2.8-fold in neonatal cardiomyocytes stimulated with FGF1 (p<0.01). Similar results were obtained after stimulation with IL-1β and NRG-1-β1. Thus, inhibition of p38 activity augments growth factor-mediated DNA synthesis in neonatal cardiomyocytes.
substance,measurement,setting,value
FGF1: growth factor FGF1 (R&D Systems),scar size (scar volume),[1]; 2 weeks,significantly reduced
same,scar size (scar volume),[1]; 3 month,significantly reduced
same,% of BrdU positive neonatal cardiomyoctes,[2],61.8 ± 2.1%
